One may read the IC50 as the concentration that gives 50% inhibition.

The source of these data is patent publication US20260159512A1, “BCAT2 INHIBITORS” (AGIOS PHARMACEUTICALS, INC., priority 2021, published 2026).

Where “and” joins values, the source holds several entries; their conditions need not be identical. Equal values may be shown once.

Common to all, as to conditions: average where tested multiple times
In test [1] the target is T1, BCAT2 (Homo sapiens, UniProt O15382).
T1 sequence (O15382 28-392): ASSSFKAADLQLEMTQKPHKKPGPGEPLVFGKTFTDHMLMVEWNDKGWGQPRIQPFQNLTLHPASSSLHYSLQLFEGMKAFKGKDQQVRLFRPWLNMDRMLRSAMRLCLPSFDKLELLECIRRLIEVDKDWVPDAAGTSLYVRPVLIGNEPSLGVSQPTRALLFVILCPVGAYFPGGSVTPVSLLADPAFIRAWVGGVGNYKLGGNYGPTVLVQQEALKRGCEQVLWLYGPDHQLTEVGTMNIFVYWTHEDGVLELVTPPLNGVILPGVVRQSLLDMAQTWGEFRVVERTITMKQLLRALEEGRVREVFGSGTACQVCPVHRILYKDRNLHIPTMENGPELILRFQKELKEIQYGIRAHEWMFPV
In words: BCAT2 in vitro cell inhibition using engineered A549 cells (KMV cell assay, 13C6-KMV by LC-MS/MS). The class given is cell-based. Further details: The result was an engineered A549 cell line that expressed endogenous BCAT2; endogenous in cells; host or cells: A549 cells with MUT and BCAT1 knocked out by CRISPR/CAS9; key to BCAT2 Cell Inhibition: A: less than or equal to 0.100 μM; B: greater than 0.100 and less than or equal to 0.500 μM; C: greater than 0.500 and less than or equal to 1.000 μM; d: greater than 1.000 μM; E: no fit.

Test [2] concerns the target T1, BCAT2. In words: BCAT2 in vitro enzyme inhibition assay (resazurin/diaphorase-coupled fluorescence). The class given is biochemical. The essentials:
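Coupled fluorescence readout: glutamate formed from L-leucine/α-ketoglutarate transamination drives GDH/NAD/diaphorase reduction of resazurin (Ex 540/Em 590). Human BCAT2 was first exposed 1 h at room temperature to compound, top final 100 μM in 3-fold, 10-point series; substrate reaction ran 1 h before SDS quench, in technical duplicate with DMSO max and enzyme-free min controls.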
Background: Resazurin is reduced to fluorescent resorufin, in cell work by metabolically active cells.

The next test deals with T2, hBCAT1 (Homo sapiens, UniProt P54687).
T2 sequence (P54687 1-386): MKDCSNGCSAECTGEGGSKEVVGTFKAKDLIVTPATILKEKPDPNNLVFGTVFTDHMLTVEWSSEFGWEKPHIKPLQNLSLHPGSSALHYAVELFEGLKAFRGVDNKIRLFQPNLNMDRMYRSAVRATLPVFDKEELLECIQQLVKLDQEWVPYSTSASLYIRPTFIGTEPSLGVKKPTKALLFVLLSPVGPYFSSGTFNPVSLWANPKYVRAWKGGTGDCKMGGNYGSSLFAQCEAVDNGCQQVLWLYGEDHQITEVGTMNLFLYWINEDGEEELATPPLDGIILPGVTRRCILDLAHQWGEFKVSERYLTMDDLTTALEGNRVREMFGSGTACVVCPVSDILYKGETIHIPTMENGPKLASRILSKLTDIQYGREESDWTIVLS
The experiment in a line: BCAT1 in vitro enzyme inhibition assay (resazurin/diaphorase-coupled fluorescence). The class given is biochemical. The essentials:
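Ten-point, 3-fold compound series (top final 100 μM, delivered 1:50 from 50× DMSO stocks) tested against hBCAT1. Inhibition detected via diaphorase-coupled resazurin fluorescence, duplicate wells, with values from repeated runs averaged.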

Regarding `CC(C)C(=O)c1nc2cnc(-c3nc[nH]n3)cc2n1[C@@H]1CCC[C@H](NC(=O)c2ncc(Cl)s2)C1` [Example 187, 5-chloro-N-((1S,3R)-3-(2-isobutyryl-6-(1H-1,2,4-triazol-3-yl)-1H-imidazo[4,5-c]pyridin-1-yl)cyclohexyl)thiazole-2-carboxamide], the IC50 against BCAT2 [1] fell in the range of 100 to 500 nM; against BCAT2 [2], 100 to 500 nM; at hBCAT1 it was 1000 to 5000 nM.

In the case of `O=C(N[C@H]1CCC[C@@H](n2c(-c3ccccc3OC(F)F)nc3cnc(-c4nc[nH]n4)cc32)C1)c1ncc(Cl)s1` [Example 367, 5-chloro-N-((1S,3R)-3-(2-(2-(difluoromethoxy)phenyl)-6-(1H-1,2,4-triazol-3-yl)-1H-imidazo[4,5-c]pyridin-1-yl)cyclohexyl)thiazole-2-carboxamide], the “BCAT2 Cell Inhibition” value on BCAT2 [1] is “E”. Further, the half-maximal inhibitory concentration (IC50) on BCAT2 [2] is not above 100 nM; against hBCAT1 it was less than 500 nM.

For `CNc1nccc(-c2cc3c(cn2)nc(CC(C)C)n3[C@@H]2CCC[C@H](NC(=O)c3ncc(Cl)s3)C2)n1` [Example 316, 5-chloro-N-((1S,3R)-3-(2-isobutyl-6-(2-(methylamino)pyrimidin-4-yl)-1H-imidazo[4,5-c]pyridin-1-yl)cyclohexyl)thiazole-2-carboxamide], the IC50 is more than 1000 nM at BCAT2 [1], not above 100 nM against BCAT2 [2] and 1000 to 5000 nM on hBCAT1.

As for `COc1ccccc1-c1nc2cnc(-c3nc[nH]n3)cc2n1[C@@H]1CCC[C@H](NC(=O)c2ncc(Cl)s2)C1` [Example 352, 5-chloro-N-((1S,3R)-3-(2-(2-methoxyphenyl)-6-(1H-1,2,4-triazol-3-yl)-1H-imidazo[4,5-c]pyridin-1-yl)cyclohexyl)thiazole-2-carboxamide], the results for the IC50 against BCAT2 [1], against BCAT2 [2] and against hBCAT1 were not above 100 nM, not above 100 nM and less than 500 nM, respectively.

On to `O=C(N[C@H]1CCC[C@@H](n2c(-c3ncccc3F)nc3cnc(-n4nccn4)cc32)C1)c1ncc(C(F)F)s1` [Example 24, 5-(difluoromethyl)-N-((1S,3R)-3-(2-(3-fluoropyridin-2-yl)-6-(2H-1,2,3-triazol-2-yl)-1H-imidazo[4,5-c]pyridin-1-yl)cyclohexyl)thiazole-2-carboxamide], for which the values for the concentration for half-maximal inhibition (IC50) against BCAT2 [1], at BCAT2 [2] and on hBCAT1 were not above 100 nM, not above 100 nM and less than 500 nM, respectively.

On to `CC(C)Cc1nc2cnc(-n3nccn3)cc2n1[C@@H]1CCC[C@H](NC(=O)c2ccc(Cl)s2)[C@H]1O` [Example 393, 5-chloro-N-((1S,2R,3R)-2-hydroxy-3-(2-isobutyl-6-(2H-1,2,3-triazol-2-yl)-1H-imidazo[4,5-c]pyridin-1-yl)cyclohexyl)thiophene-2-carboxamide], for which the IC50 on BCAT2 [1] was not above 100 nM; at BCAT2 [2], not above 100 nM; against hBCAT1, less than 500 nM.

`CC(C)Cc1nc2cnc(-c3nc[nH]n3)cc2n1[C@@H]1CCC[C@H](NC(=O)c2ccc(C(F)(F)F)s2)C1` [Example 342, N-((1S,3R)-3-(2-isobutyl-6-(1H-1,2,4-triazol-3-yl)-1H-imidazo[4,5-c]pyridin-1-yl)cyclohexyl)-5-(trifluoromethyl)thiophene-2-carboxamide]: the 50% inhibitory concentration (IC50) at BCAT2 [1] was not above 100 nM; against BCAT2 [2] it was not above 100 nM; at hBCAT1, less than 500 nM.

Regarding `CC(=O)N1CC(NC(=O)c2ncc(C(F)F)s2)CC(n2c(-c3ccccc3F)nc3cnc(-n4ccnn4)cc32)C1` (stereo not drawn) [Example 124, N-(1-acetyl-5-(2-(2-fluorophenyl)-6-(1H-1,2,3-triazol-1-yl)-1H-imidazo[4,5-c]pyridin-1-yl)piperidin-3-yl)-5-(difluoromethyl)thiazole-2-carboxamide], the values for the IC50 at BCAT2 [1], against BCAT2 [2] and on hBCAT1 were 100 to 500 nM, not above 100 nM and 1000 to 5000 nM, respectively.

Take `O=C(N[C@H]1CCC[C@@H](n2c(-c3ccccc3F)nc3cnc(-n4nccn4)nc32)C1)c1ncc(C(F)F)s1` [Example 62, 5-(difluoromethyl)-N-((1S,3R)-3-(8-(2-fluorophenyl)-2-(2H-1,2,3-triazol-2-yl)-9H-purin-9-yl)cyclohexyl)thiazole-2-carboxamide]: the IC50 at BCAT2 [1] was not above 100 nM; on BCAT2 [2], not above 100 nM; against hBCAT1, 500 to 1000 nM.

Take `CC(=O)N1CC(NC(=O)c2ccc(Br)s2)CC(n2c(-c3ncccc3F)nc3cc(-c4nnco4)ccc32)C1` (stereo not drawn) [Example 283, N-(1-acetyl-5-(2-(3-fluoropyridin-2-yl)-5-(1,3,4-oxadiazol-2-yl)-1H-benzo[d]imidazol-1-yl)piperidin-3-yl)-5-bromothiophene-2-carboxamide]: the IC50 against BCAT2 [1] was more than 1000 nM; on BCAT2 [2] it was not above 100 nM; on hBCAT1 it was > 5000 nM and 1000 to 5000 nM.

For `O=C(N[C@H]1CCC[C@@H](n2c(-c3ncccc3F)nc3cnc(-n4ccnn4)cc32)C1)c1ncc(C(F)F)s1` [Example 37, 5-(difluoromethyl)-N-((1S,3R)-3-(2-(3-fluoropyridin-2-yl)-6-(1H-1,2,3-triazol-1-yl)-1H-imidazo[4,5-c]pyridin-1-yl)cyclohexyl)thiazole-2-carboxamide], the concentration for half-maximal inhibition (IC50) against BCAT2 [1] was more than 1000 nM; against BCAT2 [2] it was 100 to 500 nM; against hBCAT1 it was 1000 to 5000 nM.

As for `O=C(N[C@H]1CCC[C@@H](n2c(COC(F)(F)F)nc3cnc(-c4nc[nH]n4)cc32)C1)c1ncc(Cl)s1` [Example 313, N-((1S,3R)-3-(6-(1H-1,2,4-triazol-3-yl)-2-((trifluoromethoxy)methyl)-1H-imidazo[4,5-c]pyridin-1-yl)cyclohexyl)-5-chlorothiazole-2-carboxamide], the results for the IC50 on BCAT2 [1], against BCAT2 [2] and against hBCAT1 were not above 100 nM, not above 100 nM and less than 500 nM, respectively.

Regarding `C#Cc1cnc(C(=O)N[C@H]2CCC[C@@H](n3c(-c4ncccc4C)nc4cnc(-n5nccn5)cc43)C2)s1` [Example 61, 5-ethynyl-N-((1S,3R)-3-(2-(3-methylpyridin-2-yl)-6-(2H-1,2,3-triazol-2-yl)-1H-imidazo[4,5-c]pyridin-1-yl)cyclohexyl)thiazole-2-carboxamide], the IC50 is not above 100 nM on BCAT2 [1], not above 100 nM on BCAT2 [2] and less than 500 nM at hBCAT1.

As for `C#Cc1cnc(C(=O)N[C@H]2CCC[C@@H](n3c(-c4ncccc4F)nc4cnc(-n5nccn5)cc43)C2)s1` [Example 23, 5-ethynyl-N-((1S,3R)-3-(2-(3-fluoropyridin-2-yl)-6-(2H-1,2,3-triazol-2-yl)-1H-imidazo[4,5-c]pyridin-1-yl)cyclohexyl)thiazole-2-carboxamide], the IC50 is not above 100 nM on BCAT2 [1], not above 100 nM against BCAT2 [2] and less than 500 nM against hBCAT1.

For `O=C(N[C@H]1CCC[C@@H](n2c(-c3ccccc3F)nc3cnc(-n4nccn4)cc32)[C@@H]1O)c1ncc(Cl)s1` (single isomer, unassigned) [Example 113], the IC50 at BCAT2 [1] was not above 100 nM; against BCAT2 [2], not above 100 nM; on hBCAT1, less than 500 nM.

As for `O=C(N[C@@H]1C[C@@H](O)C[C@H](n2c(-c3ccccc3F)nc3cnc(-n4nccn4)cc32)C1)c1ncc(C(F)F)s1` (single isomer, unassigned) [Example 107], the concentration for half-maximal inhibition (IC50) on BCAT2 [1] was 500 to 1000 nM; against BCAT2 [2] it was 100 to 500 nM; against hBCAT1, less than 500 nM.

Turning to `CO[C@H]1C[C@H](NC(=O)c2ncc(Cl)s2)C[C@H](n2c(CC(C)C)nc3cnc(-c4ncccn4)cc32)C1` [Example 435, 5-chloro-N-((1R,3S,5S)-3-(2-isobutyl-6-(pyrimidin-2-yl)-1H-imidazo[4,5-c]pyridin-1-yl)-5-methoxycyclohexyl)thiazole-2-carboxamide], the figures for the IC50 at BCAT2 [1], on BCAT2 [2] and on hBCAT1 were not above 100 nM, not above 100 nM and less than 500 nM, respectively.

Consider `O=C(N[C@H]1CCC[C@@H](n2c(Nc3ccccc3)nc3cnc(-n4nccn4)cc32)C1)c1ncc(C(F)F)s1` [Example 73, 5-(difluoromethyl)-N-((1S,3R)-3-(2-(phenylamino)-6-(2H-1,2,3-triazol-2-yl)-1H-imidazo[4,5-c]pyridin-1-yl)cyclohexyl)thiazole-2-carboxamide], for which the IC50 was more than 1000 nM against BCAT2 [1], not above 100 nM at BCAT2 [2] and more than 5000 nM against hBCAT1.
